From patent US20130316963A1, “INNATE DEFENCE REGULATORY PEPTIDE COMPOSITIONS FOR TREATMENT OF ARTHRITIS” (UNIVERSITY OF MANITOBA, priority 2010, published 2013)
Residues, ends and D or L forms follow the SMILES beside them.

Test system: human FLS cells
Assay: Cellular cytotoxicity by release of lactate dehydrogenase (LDH)
Type: cell-based
Conditions: presence and absence of cytokine stimulation, 24 hr; IDR-1002 100 μg/ml, IDR-1 200 μg/ml; data not shown
Procedure: Synovial tissues were obtained from patients with OA in accordance to a protocol by the Institutional Review Board at the University of Manitoba. FLS cells were isolated from the synovial tissues following the procedure taught by Kammouni et al. (2007, Regulation of apoptosis in fibroblast-like synoviocytes by the hypoxia-induced Bcl-2 family member Bcl-2/adenovirus E1B 19-kd protein-interacting protein 3. Arthritis Rheum. 56:2854-2863). […] Cellular cytotoxicity was evaluated by monitoring the release of lactate dehydrogenase (LDH) employing a colorimetric detection kit (Roche Diagnostics, Laval, QC, Canada).
Inflammatory cytokines TNF-α and IL-1β stimulate cells types such as FLS, chondrocytes and macrophages resulting in the production of MMP-3 in arthritic joints. […] In this study we evaluated the impact of IDR peptides on TNF-α and IL-1β-induced MMP-3 production. […] The peptides were not cytotoxic to the FLS cells in the presence and absence of cytokine stimulation, as determined by monitoring the tissue culture supernatants for the release of LDH after 24 hr of stimulation (data not shown). Tissue culture supernatants were monitored after 24 hr of stimulation for MMP-3 production by ELISA. […]

## CC[C@H](C)[C@H](NC(=O)[C@H](CCCNC(=N)N)NC(=O)[C@H](CO)NC(=O)[C@@H](N)CCCCN)C(=O)N[C@H](C(=O)N1CCC[C@H]1C(=O)N[C@@H](C)C(=O)N[C@H](C(=O)N1CCC[C@H]1C(=O)N[C@H](C(=O)N[C@@H](CO)C(=O)N[C@@H](CC(C)C)C(=O)N[C@@H](CC(C)C)C(=O)O)C(C)C)[C@@H](C)CC)C(C)C [IDR-1, KSRIVPAIPVSLL, reference compound] (H-KSRIVPAIPVSLL-OH)
  cytotoxicity to FLS cells (release of LDH): not cytotoxic
